Experimental findings from patent publication US4537777A, “A52688 Antibiotics and process for their production” (priority 1983, dated 1985) are described below.

Read-outs that look alike come from different tables or passages of the source.

The term LD50 denotes the dose at which mortality reaches 50%.

One series concerns Candida albicans. The experiment in a line: standard disc-plate assay. The format is cell-based. To be noted: read-out: Zone Diameters.
For another series, the system named is Bacillus subtilis. The experiment in a line: standard disc-plate assay. The series is classed as cell-based. To be noted: read-out: Zone Diameters.
For series [1], the system named is Saccharomyces pastorianus. The experiment in a line: standard disc-plate assay. The format is cell-based. To be noted: read-out: Zone Diameters.
In the next series the test system is Proteus vulgaris. As to the kind of experiment: standard disc-plate assay. The format is cell-based. Particulars: read-out: Zone Diameters.
The next series concerns Pseudomonas aeruginosa. The experiment in a line: standard disc-plate assay. The format is cell-based. To be noted: read-out: Zone Diameters.
Another series concerns Serratia marcescens. The experiment in a line: standard disc-plate assay. The series is classed as cell-based. To be noted: read-out: Zone Diameters.
Another series is described as follows: moisture absorption. The format is physicochemical.
The next series concerns Staphylococcus aureus. The experiment in a line: standard disc-plate assay. The series is classed as cell-based. Particulars: read-out: Zone Diameters.
Series [2] has as its system Bacillus stereothermophilus. As to the kind of experiment: standard disc-plate assay. Particulars: read-out: Zone Diameters. The format is cell-based.
The test system of a further series is Neurospora crassa. The experiment in a line: standard disc-plate assay. The format is cell-based. To be noted: read-out: Zone Diameters.
For the next series, the system named is Pseudomonas solanacearum. The experiment in a line: microbe, parasite or virus in culture. The series is classed as cell-based. Particulars: Ralstonia solanacearum; conc 0.1 mg/ml; read-out: Zone Diameters.
Another series concerns Escherichia coli. As to the kind of experiment: standard disc-plate assay. The format is cell-based. As for the experimental part:
In Table IX the standard discplate-assay activity of the A52688 factors is summarized. Activity is measured as the diameter (in mm) of the observed zone of inhibition; the diameter of the disc used in each case was 6.35 mm.

The next series deals with Micrococcus luteus. The experiment in a line: standard disc-plate assay. To be noted: read-out: Zone Diameters. The format is cell-based.
In series [3] the test system is Trichophyton mentagroprophytes. As to the kind of experiment: standard disc-plate assay. The series is classed as cell-based. To be noted: read-out: Zone Diameters.
In another series the test system is Salmonella gallinarium. As to the kind of experiment: standard disc-plate assay. To be noted: read-out: Zone Diameters. The format is cell-based.
The next series has as its system Mycobacterium avium. As to the kind of experiment: standard disc-plate assay. The format is cell-based. To be noted: read-out: Zone Diameters.
A short description of the next series: acute toxicity in mice. To be noted: mouse, in vivo, formulated in aqueous PVP. The text has this:
^a Compounds formulated in aqueous PVP
^b Route test compound administered

The next series has as its system Adenocarcinoma 755. As to the kind of experiment: murine-transplanted tumor adenocarcinoma 755 in mice. The format is in vivo. Particulars: for Percent Tumor Inhibition / Toxic Deaths: daily for 10 days. As for the experimental part:
(§1) A52688 factors A, C, D, E, F, G, H, J and K and the specified acyl esters of factors A, C, D, E, G, H, J and K are especially useful as oncolytic agents.
Table X summarizes the results of experiments in which mice bearing the murine-transplanted tumor adenocarcinoma 755 were treated with compounds of this invention. In each test the compound was administered by the intraperitoneal route at specified dose levels. The compound was administered over a ten-day period, either on a daily basis or on days one, five and nine, as indicated.

For series [4], the system named is plasma cell myeloma X-5563. As to the kind of experiment: tumor growth test in mice. The format is in vivo. To be noted: tests in mice.
Description: as §1

The test system of the next series is lymphosarcoma 6L3 HED. As to the kind of experiment: tumor growth test in mice. The series is classed as in vivo. To be noted: tests in mice.
Description: as §1

Another series relates to ovarian M-5 tumor. As to the kind of experiment: tumor growth test in mice. The format is in vivo. To be noted: tests in mice.
Description: as §1

For another series, the system named is solid leukemia P1534J. The experiment in a line: tumor growth test in mice. Particulars: tests in mice. The format is in vivo.
Description: as §1

The test system of a further series is Lewis lung tumor. As to the kind of experiment: tumor growth test in mice. The format is in vivo. To be noted: tests in mice.
Description: as §1

Where [5] appears, read: read-out: Zone Diameters, in minimal medium, conc 0.1 mg/ml, disc 6.35 mm.

`[C-]#[N+]C(=CC1CCC(OC(=O)CC(C)C)CC1)C(=CC1(OC(C)=O)C=CC(O)CC1)[N+]#[C-]` (stereo not drawn) [Factor K]: the zone of inhibition at 100 µg/mL in the series on Candida albicans is 20 mm; in the series with Bacillus subtilis, 18 mm; in [1], 20 mm; with Proteus vulgaris, 19 mm; in the series on Pseudomonas aeruginosa, 11 mm; with Serratia marcescens, 11 mm. The zone of inhibition at 100 µg/mL in the series with Staphylococcus aureus amounted to 25 mm; in series [2] it was 25 mm; in the series with Neurospora crassa, 37 mm; in the series with Pseudomonas solanacearum it was 19 mm; in the series on Escherichia coli (setting [5]), 11 mm; in the series with Micrococcus luteus, 29 mm. Further, the zone of inhibition at 100 µg/mL in series [3] came out at 32 mm; with Salmonella gallinarium it was 17 mm; with Mycobacterium avium it was 11 mm. The moisture absorption result in the series “moisture absorption” was “absorbs moisture readily”.
Take `[C-]#[N+]C(=CC1=C[C@@H](O)[C@H](O)CC1)C(=CC1CCC(OC(=O)C=C(C)C)CC1)[N+]#[C-]` (relative stereo) [Factor A]: the zone of inhibition at 100 µg/mL in the series on Candida albicans was found to be 33 mm; in the series on Bacillus subtilis, 30 mm; in [1] it was 20 mm; in the series with Proteus vulgaris, 24 mm; in the series on Pseudomonas aeruginosa, 23 mm; in the series with Serratia marcescens it was 20 mm. For the same molecule, the zone of inhibition at 100 µg/mL in the series with Staphylococcus aureus worked out at 26 mm; in series [2] it was 35 mm; in the series on Neurospora crassa, 39 mm; in the series with Pseudomonas solanacearum it was 26 mm; in the series with Escherichia coli (read-out: Zone Diameters, conc 0.1 mg/ml, disc 6.35 mm), 24 mm; in the series with Escherichia coli (setting [5]) it was 20 mm. The zone of inhibition at 100 µg/mL with Micrococcus luteus was determined as 36 mm; in [3], 45 mm; in the series with Salmonella gallinarium it was 21 mm; with Mycobacterium avium it was 14 mm. The median lethal dose (LD50) in “acute toxicity in mice” (ip, intraperitoneal, read-out: Intraperitoneal LD50) was found to be 3.12 mg/kg; in “acute toxicity in mice” (oral, read-out: Oral LD50) it was 8.84 mg/kg. The “Percent Tumor Inhibition” value in the series on Adenocarcinoma 755 (0.25 mg/kg i.p.) turned out to be 3%; in the series on Adenocarcinoma 755 (0.30 mg/kg i.p.), 55%; with Adenocarcinoma 755 (0.35 mg/kg i.p.), 69%; in the series with Adenocarcinoma 755 (0.40 mg/kg i.p.) it was 91%. Moreover, the “Toxic Deaths” value in the series on Adenocarcinoma 755 (0.25 mg/kg i.p., of 10 mice tested (9 for factor E)) amounted to 0; with Adenocarcinoma 755 (0.30 mg/kg i.p., of 10 mice tested), 1; in the series on Adenocarcinoma 755 (0.35 mg/kg i.p., of 10 mice tested) it was 1; with Adenocarcinoma 755 (0.40 mg/kg i.p., of 9 mice tested), 6. Besides, the growth of tumor result (in the series with Adenocarcinoma 755 (tests in mice); in series [4]; in the series on lymphosarcoma 6L3 HED; in the series with ovarian M-5 tumor; in the series on solid leukemia P1534J; in the series on Lewis lung tumor) was “inhibited the growth” each time.
